Experiments:
BRD4.1 [1] = target: T1, BRD4.1 (Homo sapiens (Human), UniProt O60885); experiment: Acetyl-Histone Binding Assay (AlphaScreen); details: in vitro percent inhibition of BRD4.1 at 2.5 μM compound concentration; read-out: % INHIB (at 2.5 uM)
Method: Assays were performed with minor modifications from the manufacturer's protocol (PerkinElmer, USA). All reagents were diluted in 50 mM HEPES, 150 mM NaCl, 0.1% w/v BSA, and 0.01% w/v Tween^□ 20 at pH 7.5 and allowed to equilibrate to room temperature prior to addition to plates. After addition of Alpha beads to master solutions, all subsequent steps were performed in low light conditions. […] Addition to wells was performed with either a multichannel pipet (for optimization experiments) or a Biotek EL406 liquid handler. After a 1000-rpm spin-down for 1 minute, 100 nL of the solutions of the compounds of the invention from stock plates were added by pin transfer using a Janus Workstation (PerkinElmer, USA). The streptavidin-coated donor beads (25 μg/ml final) were added as with previous solution in a 2×, 10 μL volume. Following this addition, the plates were sealed with foil to block light exposure and to prevent evaporation. The plates were spun down again at 1000 rpm for 1 minute. Next, the plates were incubated in the room with the plate reader (for temperature equilibration) for 1.5 hour prior to reading the assay.

797 cells = experiment: Cellular assay, cell viability (ATPlite), BRD4 dependent cell line 797; type: cell-based; details: 72 h; BRD4 dependent cell line 797, three days incubation
Method: (§1) The compounds of the invention are also evaluated in the BRD4 dependant cell line for the cellular activity to generate cellular IC50 values.
(§2) Cells (e.g., BRD4 dependant cells) were counted and adjusted to 60,000 cells/mL. Using a Biotek EL406, 50 μL of the cells in media were distributed into 384 well white plates from Thermo. Immediately after plating, compounds of the invention in DMSO were distributed to plates. For large plate sets, cells were returned to a 37° C. incubator while not in use. The compounds were added to plates using a 100 nL 384 well pin transfer manifold on a Janus workstation. Stocks were arrayed in 10 point quadruplicate dose response in DMSO stock in 384-well Greiner compound plates. After addition of the compounds, plates were incubated for three days in a 37° C. incubator. Cell viability was read out using ATPlite from Perkin Elmer. Plates were removed from the incubator and brought to room temperature prior to use. Lyophilized powder was resuspended in lysis buffer and diluted 1:2 with DI water. 25 μL of this solution was added to each well using the Biotek liquid handler. Plates were sealed with adherent aluminum seals prior to vortexing and spinning down at 1000 g for 1 minute. Plates were incubated for 15 minutes at room temperature before signal was read on an Envision Plate Reader.

HL60 cells = experiment: Cellular assay, cell viability (ATPlite), BRD4 dependent cell line HL60; type: cell-based; details: Homo sapiens, HL-60, 72 h; BRD4 dependent cell line HL60, three days incubation
Method: as §1, §2

BRD4.1 [2] = target: T1, BRD4.1; experiment: Isothermal Titration Calorimetery (ITC); type: binding; details: BRD4.1, 25° C.
Method: Isothermal Titration Calorimetery
ITC was performed using a ITC200 microcalorimeter from GE™ (Northampton, Mass.). All experiments were carried out at 25° C. while stirring at 1000 rpm, in ITC buffer (50 mM HEPES pH 7.4 at 25° C., 150 mM NaCl). The microsyringe was loaded with a solution of the protein sample (225 μM, in ITC buffer). […] All titrations were conducted using an initial injection of 0.2 μl, followed by 19 identical injections of 2 μl with a duration of 5 sec (per injection) and a spacing of 90 sec between injections. The heat of dilution was determined by independent titrations (protein into buffer) and was subtracted from the experimental data. […] The collected data were implicated in the MicroCal™ Origin software supplied with the instrument to yield enthalpies of binding (ΔH) and binding constants (KB) as previously described by Wiseman and coworkers. Thermodynamic parameters were calculated (ΔG=ΔH−TΔS=−RT ln KB, where ΔG, ΔH and ΔS are the changes in free energy, enthalpy and entropy of binding respectively). A single binding site model was employed.

EC50 (HL60 cells) | Kd (BRD4.1 [2]) | Compound | inhibition at 2.5 µM (BRD4.1 [1]) | EC50 (797 cells)
– | – | CCN1CCN(C(=O)Cc2ccc(Nc3ncc(F)c(Nc4ccc(C(=O)Nc5ccccc5Cl)cc4)n3)cc2)CC1 | 56.1% | –
– | – | Cc1cnc(Nc2ccc(OCCN3CCCC3)cc2)nc1Nc1cccc(S(=O)(=O)NC(C)(C)C)c1 | 36% | –
2.07 µM | 0.483 µM | CC(C)(C)NS(=O)(=O)c1cccc(Nc2nc(Nc3ccc(OCCN4CCCC4)cc3)ncc2N)c1 | – | 2.4 µM
